Where “and” joins values, the source holds several entries; their conditions need not be identical. Equal entries are not always repeated.
How the values were obtained:
P-gp = P-gp (Homo sapiens, UniProt P08183); assay: In vitro transporter inhibition, P-gp; type: in vitro ADME
[1] = system: biopsy-confirmed DIO-NASH mice; assay: DIO-GAN NASH mice: liver enzymes, plasma and liver lipids, CK18 M30; type: in vivo, C57BL/6JRj mice; settings: for plasma triglycerides (TG): end of study
Description: (§1) C57BL/6JRj male mice (n=138) were fed the Gubra Amylin NASH (GAN) diet (40% fat, 22% fructose, 2% cholesterol [D09100310, Research Diets]) or lean chow diet for 35 weeks before treatment start. Prior to treatment all animals underwent liver biopsy for histological confirmation (steatosis score ≥2 and fibrosis stage ≥1) and stratification using the nonalcoholic fatty liver disease (NAFLD) activity scoring (NAS) and fibrosis staging system. The diet-induced obese mice on GAN diet (DIO-GAN) were randomized to 8 treatment groups (Table 16) based on percent-area of picrosirius red (PSR) staining. […] Vehicle-dosed lean chow-fed controls served as healthy controls (n=10). Mice were maintained on their respective diets (GAN or lean chow) for the duration of the study. Within-subject comparisons (pre-vs. post-treatment) were performed for liver biopsy histopathological scores. Terminal quantitative endpoints included plasma/liver biochemistry, liver histomorphometry, and liver transcriptomic analysis by RNAseq.
Terminal blood was harvested by cardiac puncture from mice anesthetized with isoflurane (2-3%), mixed with anticoagulant, and placed at 4 C prior to centrifugation at 3000×g for 10 minutes. Plasma supernatants were transferred to new tubes and immediately frozen on dry ice and stored at −80 C. Alanine transaminase (ALT), Aspartate transaminase (AST), Alkaline phosphatase (ALP), Triglycerides (TGs), Total Cholesterol (TC), High-density lipoprotein (HDL-c), and Low-density lipoprotein (LDL-c) were measured using commercial kits (Roche Diagnostics) on the Cobas c 501 autoanalyzer according to manufacturer's instructions. Cytokeratin 18 M30 (CK18 M30) was measured from plasma using a commercial ELISA kit (Cusabio) according to the manufacturer's instructions.
Liver samples were homogenized and TGs and TC was extracted in 5% NP-40 by heating (2×) at 90 C. Samples were centrifuged and the TG and TC content was measured in the supernatant using commercial kits (Roche Diagnostics) on the Cobas c 501 autoanalyzer, according to the manufacturer's instructions.

[2] = system: biopsy-confirmed DIO-NASH mice; assay: DIO-GAN NASH mice: liver histology (NAS, fibrosis, IHC); type: in vivo, C57BL/6JRj mice
Description: as §1
Formalin-fixed paraffin-embedded (FFPE) liver biopsies were prepared by placing liver samples into 10% neutral buffered formalin for ˜24 hours and then transferred to 70% ethanol prior to storage at 4 C. FFPE were placed in the Histokinette to infiltrate prior to embedding in blocks. Biopsy tissues were then cut at 3 μm using a microtome and sections were mounted on slides. Liver sections were stained with Hematoxylin and Eosin (H&E) to assess steatosis, inflammation, and ballooning, and PSR to assess fibrosis. Additionally, slides were processed to detect type I collagen (Col1a1), galectin-3 (Gal-3), and smooth muscle actin (α-SMA) protein expression by immunohistochemistry (IHC). For H&E staining, slides were incubated in Mayer's Hematoxylin (Dako), washed with tap water, stained in Eosin Y solution (Sigma-Aldrich), dehydrated, and coverslipped. For PSR, slides were incubated in Weigert's iron hematoxylin (Sigma-Aldrich), washed in tap water, stained in Picro-sirius red (Sigma-Aldrich), and washed twice in acidified water. Excess water was removed by shaking the slides and the slides were then dehydrated with ethanol, cleared in xylene, and cover-slipped. The NAS and fibrosis stage were scored as described previously (Kleiner et al. 2005). NAS represents the unweighted sum of steatosis, inflammation, and ballooning scores and ranges for 0-8 (Table 17); fibrosis stage ranges from 0 (no fibrosis) to 4 (cirrhosis). For detection of Col1a1, Gal-3 and α-SMA, IHC was performed by standard procedures. Briefly, after antigen retrieval and blocking of endogenous peroxidase activity, slides were incubated with primary antibody (Col1a1: Southern Biotech, Cat. 1310-01; Gal-3: Biolegend, Cat. 125402; α-SMA: Abcam Cat. Ab124964). Primary antibody was detected using a polymeric HRP-linker antibody conjugate. Primary antibody was visualized with DAB as chromogen. Finally, sections were counterstained in hematoxylin and cover-slipped.
The NAFLD Activity Score (NAS) was used to assess the histological effects of treatment. NAS is defined as the unweighted sum of steatosis, inflammation, and ballooning histological scores and can range from 0-8. NAS was determined for each animal before (baseline) and after 12-weeks of treatment at the end of study. NAS was well balanced across treatment groups with an NAS range of 5-6 at baseline in most mice (FIG. 39A). […] In addition, the magnitude of NAS improvement was greater in the combination treatment groups.

[3] = Multiple ascending dose trial: pharmacokinetics; type: in vivo, human
Description: A multiple-ascending dose clinical trial of Compound 1 was performed.
(See Table 5, FIG. 7.) PK parameters were estimated via noncompartmental methods using Phoenix® WinNonlin® (Certara, LP, Princeton, NJ). Concentrations of serum pharmacodynamic (PD) biomarkers apolipoprotein B (Apo B) and sex hormone binding globulin (SHBG) were measured using an immunoassay and serum lipids were determined using spectrophotometry.

[4] = pH and solubilizer effect on solubility; type: physicochemical
Description: Solubility of Compound 1 (potassium salt) was evaluated at various pH levels.

BCS classification = type: physicochemical
[5] = PO QD 12 weeks, Compound 2 10 mg/kg alone or plus Compound 1 0.3/2/10 mg/kg (Combo Low/Med/High)
[6] = PO QD 12 weeks, Compound 2 10 mg/kg alone or plus Compound 1 0.3/2/10 mg/kg (Combo-low/med/high)
[7] = PO QD 12 weeks, Compound 1-low, 0.3 mg/kg
[8] = PO QD 12 weeks, Compound 1-med, 2 mg/kg
[9] = PO QD 12 weeks, Compound 1 Low, 0.3 mg/kg
[10] = PO QD 12 weeks, Compound 1 Med, 2 mg/kg

Chain of P-gp (P08183 whole entry): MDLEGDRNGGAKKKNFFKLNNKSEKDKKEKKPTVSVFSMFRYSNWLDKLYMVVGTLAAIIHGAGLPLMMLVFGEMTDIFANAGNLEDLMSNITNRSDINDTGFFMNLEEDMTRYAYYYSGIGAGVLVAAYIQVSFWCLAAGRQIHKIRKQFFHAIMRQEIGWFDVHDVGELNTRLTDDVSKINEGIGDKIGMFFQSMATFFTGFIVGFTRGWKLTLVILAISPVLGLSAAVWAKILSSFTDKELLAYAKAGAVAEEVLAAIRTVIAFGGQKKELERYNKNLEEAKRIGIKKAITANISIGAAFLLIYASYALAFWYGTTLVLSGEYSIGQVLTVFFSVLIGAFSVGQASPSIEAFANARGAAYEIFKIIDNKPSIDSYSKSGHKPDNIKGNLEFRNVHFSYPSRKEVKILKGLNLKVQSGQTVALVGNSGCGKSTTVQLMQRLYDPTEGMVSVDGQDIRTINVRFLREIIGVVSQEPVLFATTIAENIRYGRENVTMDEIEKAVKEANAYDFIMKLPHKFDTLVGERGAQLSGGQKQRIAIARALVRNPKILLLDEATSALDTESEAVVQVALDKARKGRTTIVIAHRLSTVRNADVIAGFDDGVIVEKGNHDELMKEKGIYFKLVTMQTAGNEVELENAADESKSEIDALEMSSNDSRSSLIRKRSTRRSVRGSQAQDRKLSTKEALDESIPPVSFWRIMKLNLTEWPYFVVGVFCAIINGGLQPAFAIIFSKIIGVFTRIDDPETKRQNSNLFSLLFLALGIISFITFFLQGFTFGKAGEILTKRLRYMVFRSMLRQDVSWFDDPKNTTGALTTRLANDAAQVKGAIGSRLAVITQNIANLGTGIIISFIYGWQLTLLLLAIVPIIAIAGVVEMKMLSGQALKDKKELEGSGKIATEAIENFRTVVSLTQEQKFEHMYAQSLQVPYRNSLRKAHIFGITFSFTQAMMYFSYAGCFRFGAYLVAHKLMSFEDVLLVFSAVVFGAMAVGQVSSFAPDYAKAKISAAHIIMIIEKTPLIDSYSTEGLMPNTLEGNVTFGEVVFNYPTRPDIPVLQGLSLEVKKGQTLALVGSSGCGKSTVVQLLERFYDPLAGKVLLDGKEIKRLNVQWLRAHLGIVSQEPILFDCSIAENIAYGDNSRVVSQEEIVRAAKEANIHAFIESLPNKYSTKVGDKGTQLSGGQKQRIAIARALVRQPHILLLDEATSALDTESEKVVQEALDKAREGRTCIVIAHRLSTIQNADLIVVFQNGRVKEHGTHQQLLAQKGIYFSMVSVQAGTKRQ

**Q.** Which IC50 (P-gp) does the source give for `Cn1cc(C(=O)O)c2ccc(C3CCC(OCc4c(-c5c(Cl)cccc5Cl)noc4C4CC4)CC3)cc21` (centres unmarked) [Compound 2] here?
**A.** Its IC50 is 3.92 µM.

**Q.** What about the “plasma triglycerides (TG)” value ([1]; Compound 2 10 mg/kg and combinations) of the same compound?
**A.** The value was “significantly reduced”.

**Q.** What about the “Histological Steatosis Score: No change, % of mice” value [2, 5] of the same compound?
**A.** Its value is 18.75%.

**Q.** What about the “Liver Fibrosis stage: Improving, % of mice” value [2, 5] of the same compound?
**A.** Its value is 6.25%.

**Q.** What about the “Liver Fibrosis stage: No change, % of mice” value [2, 5] of the same compound?
**A.** Its value is 56.25%.

**Q.** What about the “Liver Fibrosis stage: Worsening, % of mice” value [2, 5] of the same compound?
**A.** Its value is 37.5%.

**Q.** What about the “Lobular Inflammation: Improving, % of mice” value [2, 5] of the same compound?
**A.** The value was 0%.

**Q.** And the “Lobular Inflammation: No change, % of mice” value [2, 5]?
**A.** Its value is 68.75%.

**Q.** And the “Lobular Inflammation: Worsening, % of mice” value [2, 5]?
**A.** The value was 31.25%.

**Q.** And the “Steatosis Score: Improving 1-pt, % of mice” value [2, 5]?
**A.** Its value is 81.25%.

**Q.** And the “Steatosis Score: Improving Total, % of mice” value [2, 5]?
**A.** The value was 81% and 81.25%.

**Q.** And the “Steatosis Score: Improving ≥2-pt, % of mice” value [2, 5]?
**A.** The value was 0%.

**Q.** And the “NAFLD Activity Score (NAS): No change, % of mice” value [2, 6]?
**A.** The value was 43.7%.

**Q.** What about the “NAS: Improving 1-pt, % of mice” value [2, 6] of the same compound?
**A.** Its value is 56.25%.

**Q.** What about the “NAS: Improving Total (≥1-pt), % of mice” value [2, 6] of the same compound?
**A.** The value was 56% and 56.25%.

**Q.** What about the “NAS: Improving ≥2-pt, % of mice” value [2, 6] of the same compound?
**A.** Its value is 0%.

**Q.** And the “NAS: Worsening ≥1-pt, % of mice” value [2, 6]?
**A.** The value was 0%.

**Q.** And the “α-SMA (IHC)” value ([2]; end of study, Compound 2 10 mg/kg, combinations per Table 16)?
**A.** The value was “Numeric reductions”.

**Q.** And the “Gal-3 expression in the liver (IHC) relative to DIO-GAN vehicle control” value ([2]; end of study, doses per Table 16)?
**A.** Its value is “lower levels of Gal-3 expression”.

**Q.** With `N#Cc1nn(-c2cc(Cl)c(Oc3n[nH]c(=O)c4ccccc34)c(Cl)c2)c(=O)[nH]c1=O` [Compound 1, 2-(3,5-dichloro-4-((4-oxo-3,4-dihydrophthalazin-1-yl)oxy)phenyl)-3,5-dioxo-2,3,4,5-tetrahydro-1,2,4-triazine-6-nitrile] as the compound, how does the t1/2 ([3]; Day 14, 6 mg QD, N = 6, median) read?
**A.** Its t1/2 is 15.8 h.

**Q.** And the “oral bioavailability and PK variability” value ([3]; multiple doses)?
**A.** The value was “good oral bioavailability with low PK variability”.

**Q.** What about the aqueous solubility ([4]; even in the salt form) of the same compound?
**A.** Its aqueous solubility is “very low aqueous solubility”.

**Q.** And the Solubility ([4]; pH 10.0 buffer, 24 h, with 2 wt % SLS, 25° C., potassium salt)?
**A.** The Solubility was 0.3082 mg/mL.

**Q.** What about the “plasma triglycerides (TG)” value ([1]; Compound 1-high, 10 mg/kg) of the same compound?
**A.** The value was “significantly reduced”.

**Q.** And the “ALT levels relative to DIO-GAN vehicle control” value ([1]; single agent Compound 1 low, med, and high (0.3, 2, 10 mg/kg))?
**A.** The value was “significantly lowered”.

**Q.** And the “NAFLD Activity Score (NAS): No change, % of mice” value [2, 7]?
**A.** Its value is 56.25%.

**Q.** And the “NAS: Improving 1-pt, % of mice” value [2, 7]?
**A.** Its value is 31.25%.

**Q.** And the “NAS: Improving Total (≥1-pt), % of mice” value [2, 7]?
**A.** The value was 31% and 31.25%.

**Q.** What about the “NAS: Improving ≥2-pt, % of mice” value [2, 7] of the same compound?
**A.** Its value is 0%.

**Q.** And the “NAS: Worsening ≥1-pt, % of mice” value [2, 7]?
**A.** The value was 12.5%.

**Q.** And the “NAS: Improving 1-pt, % of mice” value [2, 8]?
**A.** Its value is 20%.

**Q.** And the “NAS: Improving Total (≥1-pt), % of mice” value [2, 8]?
**A.** Its value is 27%.

**Q.** What about the “NAS: Improving ≥2-pt, % of mice” value [2, 8] of the same compound?
**A.** The value was 7% and 6.7%.

**Q.** What about the “NAS: Worsening ≥1-pt, % of mice” value [2, 8] of the same compound?
**A.** Its value is 0%.

**Q.** What about the “Histological Steatosis Score: No change, % of mice” value [2, 9] of the same compound?
**A.** Its value is 68.75%.

**Q.** And the “Liver Fibrosis stage: Improving, % of mice” value [2, 9]?
**A.** Its value is 6.25%.

**Q.** What about the “Liver Fibrosis stage: No change, % of mice” value [2, 9] of the same compound?
**A.** The value was 62.5%.

**Q.** And the “Lobular Inflammation: Improving, % of mice” value [2, 9]?
**A.** Its value is 6.25%.

**Q.** What about the “Lobular Inflammation: Worsening, % of mice” value [2, 9] of the same compound?
**A.** Its value is 25%.

**Q.** And the “Steatosis Score: Improving 1-pt, % of mice” value [2, 9]?
**A.** The value was 25%.

**Q.** What about the “Steatosis Score: Improving Total, % of mice” value [2, 9] of the same compound?
**A.** The value was 31%.

**Q.** And the “Steatosis Score: Improving ≥2-pt, % of mice” value [2, 9]?
**A.** Its value is 6.25%.

**Q.** What about the “Liver Fibrosis stage: No change, % of mice” value [2, 10] of the same compound?
**A.** Its value is 60%.

**Q.** And the “Lobular Inflammation: Improving, % of mice” value [2, 10]?
**A.** The value was 6.7%.

**Q.** And the “Lobular Inflammation: Worsening, % of mice” value [2, 10]?
**A.** The value was 20%.

**Q.** What about the “Steatosis Score: Improving 1-pt, % of mice” value [2, 10] of the same compound?
**A.** The value was 40%.

**Q.** And the “Steatosis Score: Improving Total, % of mice” value [2, 10]?
**A.** Its value is 47%.

**Q.** What about the “Steatosis Score: Improving ≥2-pt, % of mice” value [2, 10] of the same compound?
**A.** Its value is 6.7%.

**Q.** And the “α-SMA (IHC)” value ([2]; end of study, Compound 1-low and Compound 1-med (0.3 and 2 mg/kg))?
**A.** Its value is “Numeric reductions”.

**Q.** And the BCS classification (BCS classification)?
**A.** Its BCS classification is “BCS Class IV”.

Reference: patent US20240293416A1, “TREATMENT OF LIVER DISORDERS WITH A THR-ß AGONIST” (Terns Pharmaceuticals, Inc., priority 2021, published 2024)
